Assay results from paper PMC12700558, “Aggregation shifts amyloid-β peptides from synaptogenic to synaptotoxic” (The Journal of Clinical Investigation, 2025).
Values joined by “and” are separate entries in the source; they are usually repeats but may differ in a detail not shown here. Equal values may be shown once. “Also recorded” adds a separate entry of the source.

Tests used:
human neurons [1] = assay: NLS-TdTomato cytotoxicity assay (cytoplasmic leakage of NLS-TdTomato)
Experimental: The MTT assay employs yellow tetrazolium dye that is reduced to a purple formazan crystal by viable cells with active metabolism ([21]). Because it measures metabolic activity in all cells, this assay serves as a broad cytotoxicity read out for the entire glia/neuron coculture system. The amount of formazan produced is then measured because it is directly proportional to the number of viable cells ([21]) (Figure 1B and Supplemental Figure 1A). The nuclear localization TdTomato assay, conversely, enables monitoring of cellular stress by tracking the localization of fluorescent TdTomato fused to a nuclear localization signal. Under healthy conditions, the nuclear localization signal directs the NLS-TdTomato to the nucleus. When toxicity in a cell causes a reduction in ATP levels, NLS-TdTomato leaks out of the nucleus into the cytoplasm, which we scored as an index of toxicity (Figure 1, C and D, and Supplemental Figure 1, B–D). Because the reporter is expressed only in neurons, this assay specifically assesses neurotoxicity within the coculture. We developed this assay because it can be performed on live cells and reflects decreases in ATP levels in these cells. […]
To assess neuronal cytotoxicity induced by Aβ peptides, we employed a novel Td-Tomato cytotoxicity assay that we developed. […] Neurons displaying cytoplasmic Td-Tomato were counted as indicators of cytotoxicity. […]

[2] = Native PAGE and immunoblotting of the aggregation state of Aβ peptides; format: physicochemical; conditions: stock solutions incubated at 37°C for 60 or 90 minutes, native PAGE, immunoblot 4G8 / Abcam 126892
Experimental: To assess the aggregation state of Aβ peptides in stock solutions, we performed native polyacrylamide gel electrophoresis (PAGE) followed by immunoblotting. Stock solutions of Aβ peptides were incubated at 37°C for 1.5 and/or 1 hours to promote aggregate formation. After incubation, samples were diluted 1:2 with native PAGE sample buffer to maintain nondenaturing conditions. The samples were loaded onto 4%–15% gradient polyacrylamide Criterion gels (Bio-Rad), which allow for the separation of proteins across a wide range of molecular weights under native conditions. Electrophoresis was conducted using Tris-Glycine buffer at 4°C for 3 hours to preserve the native structure of the peptide aggregates during separation. A constant voltage appropriate for native PAGE was applied throughout the run ([49]). Following electrophoresis, proteins were transferred onto Nitrocellulose (0.45 μm) membranes using a semidry transfer apparatus optimized for proteins of mixed molecular weights. The transfer was performed according to the manufacturer’s instructions, ensuring efficient transfer of both low and high molecular weight species. Membranes were blocked with 5% BSA (GeminiBio) in Tris-buffered saline with 0.1% Tween-20 (TBST) at room temperature for 1 hour to prevent nonspecific antibody binding. […] Blots were imaged using the Odyssey Infrared Imager CLX and analyzed using Image Study 5.2.5. […]

human neurons [3] = assay: GCaMP6m live imaging of Ca2+ signals (network activity); format: cell-based; set-up: Ca2+ imaging: Frequency / Ca2+ imaging: Amplitude: unit not given here; conditions: for Ca2+ imaging: Amplitude / Ca2+ imaging: Frequency / Ca2+ imaging: Synchronicity: single biological replicates (batches), n=3, listed as Ab42 arctic mutation
Experimental: To evaluate the effects of Aβ peptide treatments on neuronal network activity, live calcium imaging was performed using human neurons expressing the genetically encoded calcium indicator GCaMP. At DIV6, human neurons were infected with a lentiviral vector, prepared as described previously at Virus generation, carrying a plasmid encoding GCaMP6m under the control of the human Synapsin-1 promoter, ensuring neuron-specific expression. […] At DIV45, when the neurons had reached full maturation, synaptic activity was recorded. For potentiating synaptic transmission of human neurons, the cells were imaged with ambient 4 mM CaCl2 and 8 mM KCl equilibrated in a HEPES-based buffer (140 mM NaCl, 10 mM HEPES, 20 mM glucose, 1 mM MgCl2). […] Neuronal activity was captured in 2-minute videos at a frame rate of 10 frames/second, allowing for the detection of spontaneous calcium transients indicative of neuronal firing. Following acquisition, the videos were analyzed using MATLAB software (MathWorks). Regions of interest (ROIs) corresponding to 10–20 neurons were selected, and fluorescence intensity changes over time were extracted for each ROI. Analyses focused on quantifying the frequency, amplitude, and synchronicity of calcium signal peaks across the neuronal network. Signal peaks were identified using a peak detection algorithm, and synchronicity was assessed through cross-correlation analyses between neuronal pairs or by calculating network synchrony measures ([26]).

[4] = system: human neurons cocultured with mouse glia; conditions: chronic exposure DIV6-DIV45, neurotoxic doses
From the text: The Incucyte Cytotox Green assay, finally, monitors membrane integrity using a DNA dye that gains access to nuclei only when the plasma membrane is compromised (Supplemental Figure 1, F and G).
To obtain a live cell read out of neuronal death, we monitored loss of plasma-membrane integrity with Incucyte Cytotox Green reagent (Sartorius), a cell-impermeant DNA dye that fluoresces upon binding to nuclear DNA once the membrane is breached ([48]). A 250× stock supplied by the manufacturer was thawed on ice and diluted into prewarmed culture medium to a final working concentration of 250 nM immediately before use. For each assay plate, half the medium was removed and replaced with dye-containing medium so that the final dye concentration and vehicle composition were identical across all conditions. For validation, DIV30 cocultures were challenged for 4 hours with 200 μM H2O2; fluorescence images were acquired immediately thereafter. […] Dye was present for 2 hours before imaging to allow equilibrium without inducing additional stress. Ten nonoverlapping fields per well were captured with the 20× objective using green fluorescence channels. Exposure settings were kept constant within an experiment. Images were processed with ImageJ. A top-hat background subtraction was applied to the green channel, and a fluorescence threshold was kept constant across batches. […]

[5] = concentrations that proved synaptotoxic, DIV45

Question: What does the source list for “-.DAEFRHDSGYEVHHQKLVFFAGDVGSNKGAIIGLMVGGVVI.A [Aβ42^arctic]”?
Answer: Concentration at which neurotoxicity became apparent, NLS-TdTomato assay (human neurons [1]): greater than or equal to 0.1 μM; Aggregation state in native gel analyses (in words) [2]: completely aggregated even at lower concentrations; also recorded: quantitatively aggregated; Neuronal network activity (in words) (human neurons [3]; any concentration, chronic treatment, DIV45): did not enhance neuronal network activity at any concentration; Spike frequency and amplitude (in words) (human neurons [3]; [5]): pronounced fall; Synchrony (in words) (human neurons [3]; [5]): near-complete breakdown; Ca2+ imaging: Amplitude (human neurons [3]; peptide 0.1 uM): 0.4784 and 0.3202 and 0.4832; Ca2+ imaging: Frequency (human neurons [3]; peptide 0.1 uM): 10.7529 and 5.405 and 6.996; Ca2+ imaging: Synchronicity (human neurons [3]; peptide 0.1 uM): 0.2834 and 0.2877 and 0.3503; Ca2+ imaging: Amplitude (human neurons [3]; peptide 0.2 uM): 0.3279 and 0.286 and 0.3267; Ca2+ imaging: Frequency (human neurons [3]; peptide 0.2 uM): 0.6879 and 0.8917 and 1.347; Ca2+ imaging: Synchronicity (human neurons [3]; peptide 0.2 uM): 0.2149 and 0.1382 and 0.2492; Incucyte Cytotox Green assay, labeled nuclei (in words) [4]: modest but consistent rise in labeled nuclei
